Test results published in patent publication US7981873B1, “Use within transplantation surgery” (Corline Systems AB, priority 2000, dated 2011).

How the values were obtained:
Format in all cases: cell-based
[1] = system: adult porcine islets in fresh human blood; experiment: Tubing loop model: adult porcine islet perifusion with fresh human blood; parameters: FNIIa-AT / TAT: unit not given here; details: for Platelets: blood supplemented with additive, Mean SE(M); for TAT: thrombin-antithrombin
Description: (§1) All the in vitro experiments for studies of islets contacting whole blood were performed in a tubing loop model. The experimental model is a modification of a model for testing biomaterials that has previously been described (J. Clin. Immunol. 16, 223-230 (1996)). Tubings made of polyvinylchloride (PVC, i.d.=6.3 mm, length=300 mm) were modified with immobilized heparin according to a method developed by Corline Systems AB (Uppsala, Sweden) as disclosed in international patent application no WO93/05793. Briefly, the polymer surface is modified with a high molecular weight amine compound to add primary amine groups to the surface. A soluble conjugate prepared by covalent binding of approximately 60 mol of heparin per mol of a straight-chained polyallylamine is irreversibly bonded onto the amine surface of the tubings. This procedure results in a total surface concentration of heparin of approximately 0.5 μg/cm^2. By using such heparin modified tubings it is possible to incubate the tubings with non-anticoagulated fresh human blood in a rocking device at 37° C. for one hour with only moderate activation of blood (c.f. control column in Table 1 A and 1 B below). Unmodified tubings will invariably induce complete clotting at these experimental conditions. Addition of human islets or porcine adult or fetal islets lead to some remarkable observations. Complete clotting invariably occurred with a total loss of platelets, a sharp increase in the formation of TAT and a very significant increase in the markers of the early contact phase (FXIIa and FXIa) of coagulation (C.f. Table 1 A and 1 B).
(§2) Sixty ml of non-anticoagulated blood was collected from healthy blood donors using heparin-coated equipment. U-shaped tubings with a total volume of nine ml were filled with eight ml of blood immediately followed by addition of isolated human islets or porcine adult or porcine fetal islets (500 IEQ). The tubings were then closed into loops using connectors of titanium furnished with immobilised heparin. The tubing loops were placed vertically in a rocking device and the complete apparatus was placed in an incubator at 37° C. for up to sixty minutes. At the end of the rocking period blood was collected in EDTA and the number of cells were counted in a automatic cell counter. The blood samples were then centrifuged at 4° C. (3290×g, 20 min) and EDTA plasma was collected and immediately put at −70° C. Islets retrieved after blood perifusion were prepared for immunohistochemistry.

[2] = system: human islets in ABO-compatible fresh human blood; experiment: Tubing loop model: human islet perifusion with ABO-compatible fresh human blood; parameters: TAT: unit not given here; details: after 60 min human islet perifusion, Mean ± SE(M)
Description: as §1, §2

[3] = system: platelets in platelet rich plasma (PRP); experiment: Islet-induced platelet aggregation in platelet rich plasma (aggregometer); details: agent added to PRP before islets
Description: Platelets in platelet rich plasma (PRP) and gel filtered platelets were tested in an aggregometer. Islets were added to PRP and thereafter analysed in the aggregometer. It was shown that the islets induced aggregation of the platelets (FIG. 1) and that platelets number in the sample were reduced from 375×10^9 to 236×10^9. If purified platelets without plasma proteins were used in combination with islets no aggregation and reduction in the platelet count were observed. In attempts to identify the mechanism behind the induced aggregation, an RGDS tetrapeptide to inhibit integrin binding and a monoclonal antibody against Fc receptors on platelets were used.

[4] = after 60 min adult porcine islet perifusion

heparin
C3a [1, 4]: 486 ± 139 ng/mL | C5b-9 [1, 4]: 82 ± 22 AU/mL | FXIa-AT [1, 4]: 0.53 ± 0.26 µM | Lymphcytes [1, 4]: 1.88 ± 0.11 ×10^9 | Monocytes [1, 4]: 0.35 ± 0.05 ×10^9 | Neutrophils [1, 4]: 3.00 ± 0.19 ×10^9 | Platelets [1, 4]: 145 ± 13.0 ×10^9 | clotting ([1]; in words, summary of Tables 1A and 1B): prevented clotting | platelet count and generation of TAT ([1]; in words, summary of Tables 1A and 1B, listed as Soluble heparin): remarkable improvement | platelet count and generation of TAT ([1]; in words, summary of Tables 1A and 1B, listed as soluble heparin): remarkable improvement in preservation of the number of platelets and reduced generation of TAT | TAT [1, 4]: 505 ± 162 | Platelets ([2]; blood supplemented with additive): 114 ± 17 ×10^9 | C3a [2]: 565 ± 143.6 ng/mL | C5b-9 [2]: 147 ± 39.6 AU/mL | FXIIa-AT [2]: 5.4e-06 ± 1.7e-06 M | FXIa-AT [2]: 3.4e-07 ± 1.2e-07 M | Lymph. [2]: 1.60 ± 0.20 ×10^9 | Mono. [2]: 0.28 ± 0.06 ×10^9 | Neutra. [2]: 2.56 ± 0.43 ×10^9 | TAT ([2]; thrombin-antithrombin): 4467 ± 2285

RGDS [RGDS peptide]
consumption of platelets when islets were added to PRP ([3]; FIG. 2): totally abolished | aggregation of platelets when islets were added to PRP ([3]; FIG. 2, FIG. 3): totally abolished

B1: C1-INA: the complement inhibitor C1 inactivator (C1-INA) (protein, UniProt P05155 23-500, looked up)
Plasma protease C1 inhibitor: NPNATSSSSQDPESLQDRGEGKVATTVISKMLFVEPILEVSSLPTTNSTTNSATKITANTTDEPTTQPTTEPTTQPTIQPTQPTTQLPTDSPTQPTTGSFCPGPVTLCSDLESHSTEAVLGDALVDFSLKLYHAFSAMKKVETNMAFSPFSIASLLTQVLLGAGENTKTNLESILSYPKDFTCVHQALKGFTTKGVTSVSQIFHSPDLAIRDTFVNASRTLYSSSPRVLSNNSDANLELINTWVAKNTNNKISRLLDSLPSDTRLVLLNAIYLSAKWKTTFDPKKTRMEPFHFKNSVIKVPMMNSKKYPVAHFIDQTLKAKVGQLQLSHNLSLVILVPQNLKHRLEDMEQALSPSVFKAIMEKLEMSKFQPTLLTLPRIKVTTSQDMLSIMEKLEFFDFSYDLNLCGLTEDPDLQVSAMQHQTVLELTETGVEAAAASAISVARTLLVFEVQQPFLFVLWDQQHKFPVFMGRVYDPRA
C3a [1, 4]: 1094 ± 78 ng/mL | C5b-9 [1, 4]: 183 ± 29 AU/mL | FNIIa-AT [1, 4]: 19.65 ± 0.45 | FXIa-AT [1, 4]: 2.95 ± 0.15 | Lymphcytes [1, 4]: 1.23 ± 0.38 ×10^9 | Monocytes [1, 4]: 0.15 ± 0.01 ×10^9 | Neutrophils [1, 4]: 0.41 ± 0.13 ×10^9 | Platelets [1, 4]: 4 ± 0 ×10^9 | complement activation ([1]; in words, summary of Table 1B): reduced complement activation | effect on the coagulation parameters ([1]; in words, summary of Table 1B): no detectable effect | TAT [1, 4]: 30250 ± 3450
